Measurements as given in patent publication US20050180921A1, “Contrast agents to improve gastrointestinal tract opacification during abdominal and pelvic CT scans” (priority 2004, published 2005).

Tested on: gastrointestinal tract
Test: CT of abdomen and pelvis after oral agent: bowel distension, wall visualization, transit to colon
Type: in vivo, human
Procedure: Institutional review board approval was obtained. These materials were offered to outpatients (ranging from 18 to 89 years of age) in random fashion. In each case, the patient was given literature to explain the project and then asked to sign a consent form. Those who declined participation in the study were given dilute iodinated contrast or water as appropriate for the exam. […] The amount of each material, 1600 cc, and timing, approximately 60 minutes, were standard for the preparation protocol used with dilute iodinated contrast. Although scanning parameters varied slightly, depending on the clinical question, all patients received 5 mm or less slices through the abdomen and pelvis. […] Where given, the intravenous contrast agent was administered from 3-5 cc/sec for 100-150 cc of 300 mg % non-ionic contrast.
Each drink was labeled with a letter A-E to blind the administered substance to the reader. […] Each CT scan was read by consensus by two readers. Each exam was rated for various characteristics. The stomach was rated for distention: 1=well distended; 2=adequate distention; 3=poor distention. The small bowel was rated for two characteristics. The distention was assessed with measurements taken from the left upper quadrant (LUQ), the pelvis, and the right lower quadrant (RLQ) areas. Three measures were taken at each area with the greatest diameters used. The diameters were then averaged. The definition of the bowel wall was also graded using visualization of the wall separate from the luminal contents as well as the ability to appreciate the valvulae conniventes when present (1=excellent, 2=good, 3=fair, 4=poor, 5=non-diagnostic). Finally, an attempt was made to assess whether the ingested liquid was able to reach the colon during the preparation time period (0=no oral contrast in colon, 1=oral contrast in colon).

O [Water, water] was tested, and the “LUQ small bowel distention (averaged greatest diameters)” value (1600 cc oral, approximately 60 minutes, left upper quadrant, group mean) was 17.50 mm, the “Pelvis small bowel distention (averaged greatest diameters)” value (1600 cc oral, approximately 60 minutes, pelvis, group mean) was 14.79 mm and the “RLQ small bowel distention (averaged greatest diameters)” value (1600 cc oral, approximately 60 minutes, right lower quadrant, group mean) was 14.14 mm. For the same compound, the “mid to distal / small bowel distention, result in words” value (FIGS. 2A-2D and study in general) was “least effective”, the “Wall (definition of the bowel wall, qualitative evaluation)” value (mean grade, 1=excellent, 2=good, 3=fair, 4=poor, 5=non-diagnostic) was 2.23 and the “Stomach (distention, qualitative evaluation)” value (mean grade, 1=well distended, 2=adequate distention, 3=poor distention) was 2.13. The “Colon (ingested liquid reached the colon during preparation time)” value (mean, 0=no oral contrast in colon, 1=oral contrast in colon) was “.020”.
